The assay addresses T1, KOD DNA polymerase (exonuclease deficient mutant D141A, E143A) (Thermococcus kodakarensis, UniProt P77933, D141A/E143A).
T1 construct: gene pol; exonuclease-deficient polymerase, codon-optimized, pET24a (NdeI/NotI), E. coli BL21(DE3); intein-free mature protein
Briefly: X-ray crystal structure of closed ternary complex. It is filed as binding. Particulars: primer/template DNA (21 nt template, with canonical bases in KOD-21nt or uracil at +6 in KOD-U); polymerase active site, Mg2+ and Mn2+; pH 7.5 (KOD-21nt) or 6.5 (KOD-U).

As for `Nc1ncnc2c1ncn2[C@H]1C[C@H](O)[C@@H](COP(=O)(O)OP(=O)(O)OP(=O)(O)O)O1` [dATP], the “X-ray crystal structure of closed ternary complex” value is “closed ternary complex, with dATP and three metal ions”.

The values above are taken from paper PMC8596578, “Structural Basis for The Recognition of Deaminated Nucleobases by An Archaeal DNA Polymerase” (Chembiochem, 2021).
